# Data as given in patent publication US10287297B2, “Epoxyazulene derivatives useful for treating cancer and diabetes” (The United States of America, as represented by the …, priority 2015, dated 2019).
# Legend:
# Type in all cases: cell-based
# UO-31 = test: NCI 60 cell assay, renal UO-31; conditions: Homo sapiens, 48 h; UO-31 (renal); drug exposure two days, SRB endpoint; read-out: GI-50 value
# Procedure: (§1) Samples were tested in the standard National Cancer Institute 60-cell line protocol. First, they were tested against all 60 cell lines in a single final concentration of 10 micromolar. Then, they were separately tested in five 10-fold dilutions. The drug exposure was two days, with an SRB endpoint.
# IGROV1 = test: NCI 60 cell assay, ovarian IGROV1; conditions: Homo sapiens, IGROV-1, 48 h, drug exposure two days, SRB endpoint, read-out: GI-50 value
# Procedure: as §1
# NCI-H322M = test: NCI 60 cell assay, NSCLC NCI-H322M; conditions: Homo sapiens, 48 h, drug exposure two days, SRB endpoint, read-out: GI-50 value
# Procedure: as §1
# MDA-MB-435 = test: NCI 60 cell assay, melanoma MDA-MB-435; conditions: Homo sapiens, 48 h; MDA-MB-435 (melanoma); drug exposure two days, SRB endpoint; read-out: GI-50 value
# Procedure: as §1
# OVCAR-4 = test: NCI 60 cell assay, ovarian OVCAR-4; conditions: Homo sapiens, 48 h; OVCAR-4 (ovarian); drug exposure two days, SRB endpoint; read-out: GI-50 value
# Procedure: as §1
# HT29 = test: NCI 60 cell assay, colon HT29; conditions: Homo sapiens, HT-29, 48 h, drug exposure two days, SRB endpoint, read-out: GI-50 value
# Procedure: as §1
# DU-145 = test: NCI 60 cell assay, prostate DU-145; conditions: Homo sapiens, 48 h; DU-145 (prostate); drug exposure two days, SRB endpoint; read-out: GI-50 value
# Procedure: as §1
# UACC-257 = test: NCI 60 cell assay, melanoma UACC-257; conditions: Homo sapiens, 48 h; UACC-257 (melanoma); drug exposure two days, SRB endpoint; read-out: GI-50 value
# Procedure: as §1
# HCT-116 = test: NCI 60 cell assay, colon HCT-116; conditions: Homo sapiens, 48 h; HCT-116 (colon); drug exposure two days, SRB endpoint; read-out: GI-50 value
# Procedure: as §1
# MCF7 = test: NCI 60 cell assay, breast MCF7; conditions: Homo sapiens, 48 h, drug exposure two days, SRB endpoint, read-out: GI-50 value
# Procedure: as §1
# NCI-H226 = test: NCI 60 cell assay, NSCLC NCI-H226; conditions: Homo sapiens, 48 h, drug exposure two days, SRB endpoint, read-out: GI-50 value
# Procedure: as §1
# COLO 205 = test: NCI 60 cell assay, colon COLO 205; conditions: Homo sapiens, 48 h; COLO 205 (colon); drug exposure two days, SRB endpoint; read-out: GI-50 value
# Procedure: as §1
# ACHN = test: NCI 60 cell assay, renal ACHN; conditions: Homo sapiens, 48 h, drug exposure two days, SRB endpoint, read-out: GI-50 value
# Procedure: as §1
# SK-MEL-28 = test: NCI 60 cell assay, melanoma SK-MEL-28; conditions: Homo sapiens, 48 h; SK-MEL-28 (melanoma); drug exposure two days, SRB endpoint; read-out: GI-50 value
# Procedure: as §1
# KM12 = test: NCI 60 cell assay, colon KM12; conditions: Homo sapiens, 48 h, drug exposure two days, SRB endpoint, read-out: GI-50 value
# Procedure: as §1
# K-562 = test: NCI 60 cell assay, leukemia K-562; conditions: Homo sapiens, K562, 48 h; K-562 (leukemia); drug exposure two days, SRB endpoint; read-out: GI-50 value
# Procedure: as §1
# MDA-MB-468 = test: NCI 60 cell assay, breast MDA-MB-468; conditions: Homo sapiens, 48 h; MDA-MB-468 (breast); drug exposure two days, SRB endpoint; read-out: GI-50 value
# Procedure: as §1
# OVCAR-5 = test: NCI 60 cell assay, ovarian OVCAR-5; conditions: Homo sapiens, 48 h; OVCAR-5 (ovarian); drug exposure two days, SRB endpoint; read-out: GI-50 value
# Procedure: as §1
# NCI-H23 = test: NCI 60 cell assay, NSCLC NCI-H23; conditions: Homo sapiens, 48 h, drug exposure two days, SRB endpoint, read-out: GI-50 value
# Procedure: as §1
# HOP-92 = test: NCI 60 cell assay, NSCLC HOP-92; conditions: Homo sapiens, 48 h; HOP-92 (NSCLC); drug exposure two days, SRB endpoint; read-out: GI-50 value
# Procedure: as §1
# HCC-2998 = test: NCI 60 cell assay, colon HCC-2998; conditions: Homo sapiens, 48 h; HCC-2998 (colon); drug exposure two days, SRB endpoint; read-out: GI-50 value
# Procedure: as §1
# RPMI-8226 = test: NCI 60 cell assay, leukemia RPMI-8226; conditions: Homo sapiens, 48 h; RPMI-8226 (leukemia); drug exposure two days, SRB endpoint; read-out: GI-50 value
# Procedure: as §1
# OVCAR-3 = test: NCI 60 cell assay, ovarian OVCAR-3; conditions: Homo sapiens, 48 h; OVCAR-3 (ovarian); drug exposure two days, SRB endpoint; read-out: GI-50 value
# Procedure: as §1
# NCI-H460 = test: NCI 60 cell assay, NSCLC NCI-H460; conditions: Homo sapiens, 48 h, drug exposure two days, SRB endpoint, read-out: GI-50 value
# Procedure: as §1
# BT-549 = test: NCI 60 cell assay, breast BT-549; conditions: Homo sapiens, 48 h; BT-549 (breast); drug exposure two days, SRB endpoint; read-out: GI-50 value
# Procedure: as §1
# SW-620 = test: NCI 60 cell assay, colon SW-620; conditions: Homo sapiens, 48 h; SW-620 (colon); drug exposure two days, SRB endpoint; read-out: GI-50 value
# Procedure: as §1
# HS 578T = test: NCI 60 cell assay, breast HS 578T; conditions: Homo sapiens, 48 h; HS 578T (breast); drug exposure two days, SRB endpoint; read-out: GI-50 value
# Procedure: as §1
# SK-MEL-5 = test: NCI 60 cell assay, melanoma SK-MEL-5; conditions: Homo sapiens, 48 h; SK-MEL-5 (melanoma); drug exposure two days, SRB endpoint; read-out: GI-50 value
# Procedure: as §1
# A498 = test: NCI 60 cell assay, renal A498; conditions: Homo sapiens, 48 h, drug exposure two days, SRB endpoint, read-out: GI-50 value
# Procedure: as §1
# PC-3 = test: NCI 60 cell assay, prostate PC-3; conditions: Homo sapiens, 48 h; PC-3 (prostate); drug exposure two days, SRB endpoint; read-out: GI-50 value
# Procedure: as §1
# U251 = test: NCI 60 cell assay, CNS U251; conditions: Homo sapiens, U-251, 48 h, drug exposure two days, SRB endpoint, read-out: GI-50 value
# Procedure: as §1
# SF-295 = test: NCI 60 cell assay, CNS SF-295; conditions: Homo sapiens, 48 h; SF-295 (CNS); drug exposure two days, SRB endpoint; read-out: GI-50 value
# Procedure: as §1
# NCI-H522 = test: NCI 60 cell assay, NSCLC NCI-H522; conditions: Homo sapiens, 48 h, drug exposure two days, SRB endpoint, read-out: GI-50 value
# Procedure: as §1
SMILES,GI50 (UO-31),GI50 (IGROV1),GI50 (NCI-H322M),GI50 (MDA-MB-435),GI50 (OVCAR-4),GI50 (HT29),GI50 (DU-145),GI50 (UACC-257),GI50 (HCT-116),GI50 (MCF7),GI50 (NCI-H226),GI50 (COLO 205),GI50 (ACHN),GI50 (SK-MEL-28),GI50 (KM12),GI50 (K-562),GI50 (MDA-MB-468),GI50 (OVCAR-5),GI50 (NCI-H23),GI50 (HCC-2998),also measured
"CC1=C2[C@@H](CC1)[C@]1(C)O[C@@](C(C)C)(C[C@H]1OC(=O)[C@H](C)O)[C@H]2OC(=O)C=Cc1ccccc1 [(Il), (3aR,4S,5R,7R,8S)-5-(((S)-2-hydroxypropanoyl)oxy)-7-isopropyl-1,4-dimethyl-2,3,3a,4,5,6,7,8-octahydro-4,7-epoxyazulen-8-yl cinnamate]",0.71 µM,19 µM,19 µM,15 µM,12 µM,14 µM,17 µM,15 µM,12 µM,10 µM,11 µM,17 µM,0.09 µM,16 µM,16 µM,15 µM,11 µM,18 µM,14 µM,14 µM,GI50 (HOP-92): 6 µM; GI50 (RPMI-8226): 8 µM; GI50 (OVCAR-3): 13 µM; GI50 (NCI-H460): 15 µM; GI50 (BT-549): 1.4 µM; GI50 (SW-620): 15 µM; GI50 (HS 578T): 0.098 µM; GI50 (SK-MEL-5): 13 µM; GI50 (A498): 0.21 µM; GI50 (PC-3): 4 µM; GI50 (U251): 14 µM; GI50 (SF-295): 11 µM; GI50 (NCI-H522): 13 µM
"CC(=O)O[C@@H]1C[C@]2(C(C)C)O[C@@]1(C)[C@@H]1CCC(C)=C1[C@@H]2OC(=O)C=Cc1ccccc1 [(Im), (3aR,4S,5R,7R,8S)-5-acetoxy-7-isopropyl-1,4-dimethyl-2,3,3a,4,5,6,7,8-octahydro-4,7-epoxyazulen-8-yl cinnamate]",20 µM,100 µM,100 µM,39 µM,11 µM,31 µM,71 µM,28 µM,16 µM,19 µM,29 µM,32 µM,4.5 µM,69 µM,40 µM,34 µM,24 µM,100 µM,35 µM,68 µM,GI50 (RPMI-8226): 10 µM; GI50 (OVCAR-3): 22 µM; GI50 (NCI-H460): 31 µM; GI50 (BT-549): 51 µM; GI50 (SW-620): 39 µM; GI50 (HS 578T): 4.8 µM; GI50 (SK-MEL-5): 22 µM; GI50 (A498): 2.2 µM; GI50 (PC-3): 8 µM; GI50 (U251): 48 µM; GI50 (SF-295): 39 µM; GI50 (NCI-H522): 21 µM
